# Test results: ChEMBL document CHEMBL3507680, “University of Dundee, Gates Library screen for HepG2 cell viability”
# Assay: Human HepG2 cell viability assay in 384 well format
# Format: toxicity, cell-based
# Design: dose 125 nL, time 70.5 hour; concentration not given beside the values
# Settings: HepG2 cells, read-out: Inhibition
row,Structure (SMILES),cytotoxicity at 70.5 h
1,O=C(c1ccc[nH]1)N1CC[C@@H](OCC2CC2)[C@@H]1Cc1cccnc1,0.146%
2,COCCN1C(=O)[C@H]2CC[C@@H]1CN(c1nccc(C3CCCC3)n1)C2,-4.32%
3,COc1ccc(Cl)cc1-c1cc(NC(=O)C2COCCO2)[nH]n1 (stereo not given),-4.84%
4,c1ncn(CC2CCCCN2Cc2csc(-c3ccsc3)n2)n1 (stereo not given),-7.71%
5,O=C(CCNc1ncccn1)NCc1cccc(OC(F)F)c1,-11.7%
6,COCC(=O)Nc1ccc(-c2noc([C@@H]3CCCN3C(C)C)n2)cn1,-2.85%
7,Cn1ccnc1C(O)c1ccccc1N1CCN(Cc2cccs2)CC1 (stereo not given),-0.023%
8,COc1ccccc1OC1CCN(c2ccncc2)CC1,12.9%
9,O=C(CN1CCCCC1Cn1cncn1)NCCC1=CCCCC1 (stereo not given),32%
10,Cc1cc(C(=O)N2C[C@H]3CC[C@@H]2CN(Cc2ccccn2)C3)nc(C)n1,-0.674%
11,CS(=O)(=O)Nc1ccc([C@H]2OCC(=O)N[C@@H]2CO)cc1,2.21%
12,CS(=O)(=O)NC1CCc2[nH]c(=O)ccc2C1 (stereo not given),-4.24%
13,CCNc1ncc(-c2cc(-c3ccn(C)c3)nc(N)c2C#N)cn1,-11.6%
14,CCN(CC)CC(=O)Nc1ccc(-n2ccc(C(N)=O)n2)cc1,25.3%
15,CCNC(=O)[C@@H]1C[C@H](N)CN1c1cc(CC)nc(N(C)C)n1,-4.05%
16,COC(=O)C1CCN(C(=O)c2ccc(C)c(NS(C)(=O)=O)c2)CC1,-8.87%
17,Cc1nc(CN2CCC3(C2)CN(C(=O)c2ccc[nH]2)C3)cs1,-5.84%
18,CC(C)CCC(=O)NCCc1ccn(-c2ccccc2)n1,-5.88%
19,Cn1cc(CN2CCCC3(CCN(c4cccnc4)C3=O)C2)cn1 (stereo not given),20%
20,COCCN1CCO[C@@H]2CN(C(=O)Cc3cccc(F)c3)CC[C@@H]2C1,-0.585%
21,Cc1ccc(C2COCCN2C(=O)c2ccc(C)s2)o1 (stereo not given),-9.04%
22,COc1cccc(N2CCN(Cc3ccc4occc4c3)CC2=O)c1,-12.9%
23,CCOC[C@@H]1CCC[C@]12CN(S(=O)(=O)c1cn(C)cn1)CCO2,-5.13%

row,Structure (SMILES),cytotoxicity at 70.5 h
1,O=C(Nc1nnn[nH]1)c1ccc(-n2cccc2)c(F)c1,-9.42%
2,COc1nc2c(cc1C(=O)NCCc1nc3ccccc3s1)CCC2,-6.58%
3,CCOc1c(F)cccc1C(=O)N(CC)C(C)c1cccnc1 (stereo not given),-6.68%
4,O=C(c1ccoc1)N1CC[C@@H]2O[C@@H](COCc3ccncc3)CC[C@@H]21,10.2%
5,Cc1ncccc1OC1(C(=O)NCCCN2CCOCC2)CCNCC1,-11.7%
6,Cn1cc2c(n1)C(CNC1CCOCC1)OCC2 (stereo not given),-5.41%
7,Cc1noc(C)c1CNC(=O)Nc1ccc(N2CCOC(C)C2)cc1 (stereo not given),-13.8%
8,Cc1ccc(CN2Cc3c(C(=O)N4CCOCC4)nn(C)c3C2)s1,-2.1%
9,O=C(NCCc1ccccn1)c1[nH]nc2c1CCCC2,3.78%
10,c1cncc(-c2nc(C3CC3)ncc2-c2ccnc(N3CCCC3)n2)c1,-2.86%
11,OCCN1CCC(CNCc2ccc(Br)cc2)CC1,-1.11%
12,c1cnc(N2CCC3(CC2)CC(NCC2CC2)c2ccccc23)nc1 (stereo not given),11.4%
13,O=C(CCN1CCN(c2ccc3nncn3n2)CC1)N1CCCCC1,-5.89%
14,O=C(c1cccs1)N1CCC2(C1)c1ccccc1S(=O)(=O)N2CC1CC1 (stereo not given),-3.76%
15,COC(=O)C(c1cc(F)ccc1F)N(C)C(=O)c1cccnc1O (stereo not given),0.116%
16,O=C(C1CC1)N1CC2(CCNCC2)c2cc(F)ccc21,-11.1%
17,O=C(NC1CC1)[C@H]1CC[C@@H]2[C@@H](CCN2Cc2ccsc2)O1,-10.2%
18,COC(=O)CNC(=O)c1sc(-c2ccc(Cl)s2)nc1C,-3.49%
19,COc1ccc2c(c1)C(C(=O)N(C)CCn1ccnc1C)CC(=O)N2 (stereo not given),-3.22%
20,CN(C)C(=O)c1ccc(-c2cccc3c2CCNC3)cc1,-18%
21,CC(C)n1cc(N2CC(C(=O)N3CCN(C)CC3)CC2=O)cn1 (stereo not given),-10.8%
22,O=C(NCc1cccnc1)c1nc2c(s1)CCCN2c1ncccn1,5.15%
23,Nc1cccnc1N1CCC(O)CC1,-1.82%

row,Structure (SMILES),cytotoxicity at 70.5 h
1,CN1CCN(C(=O)c2n[nH]c3c2CN(C2CCOC2)CC3)CC1 (stereo not given),-10.2%
2,CN(CCCOc1ccccc1Cl)C(=O)CN1CCNC1=O,-1.34%
3,O=c1c(CN2CCCCC2)coc2ccc(Cl)cc12,-7.22%
4,Cc1cc(NC(=O)CNC(C)(C)c2nc(C)c(C)s2)no1,-7.18%
5,Cc1cccc(C(=O)Nc2c(C(N)=O)n[nH]c2C)c1C,-5.24%
6,CCCc1ccc(CN2CCC3(CCC(=O)N(C(C)C(=O)O)C3)CC2)o1 (stereo not given),-4.9%
7,Cc1ccccc1NC(=O)N1CCN(Cc2noc(C3CC3)n2)CC1,1.73%
8,CCC(CCO)NS(=O)(=O)c1ccc(Br)cn1 (stereo not given),-0.693%
9,COCCOc1ncccc1C(=O)N(C)c1ccc(OC)c(OC)c1,-11.7%
10,Cc1cc(CNC(=O)N2CCCN(Cc3ccccc3)CC2)no1,-9.16%
11,CSc1nccc(N2CCC(NCc3ccc4nsnc4c3)CC2)n1,23.1%
12,CCC(C)c1noc(C2CCN(C(=O)c3cccnc3)CC2)n1 (stereo not given),-12.8%
13,Cc1ccc(CN2CCCC(c3nnc(CN4CCCCC4)n3C)C2)s1 (stereo not given),4.84%
14,O=C(CN1C(=O)CCC1=O)NCc1nn(C2CCCC2)c2c1CCCC2,-2.19%
15,O=C(NCC1CC1)c1cc2c(s1)CCN2C(=O)c1cccnc1,-8.04%
16,Cc1cc2c(=O)n(CCSc3ncn[nH]3)cnc2s1,-7.44%
17,NC(=O)C1(CCCc2ccncc2)CCCN1 (stereo not given),-3.08%
18,Cn1cc(CN2CCC3(CCCN(C(=O)c4cscn4)C3)C2)cn1 (stereo not given),-3.85%
19,Cc1ccc(CNC(=O)NCCCn2nc3ccccn3c2=O)s1,30.2%
20,Cc1cc(CN2CC3(CCN(C(=O)C4CC4)CC3)CC2C(=O)O)oc1C (stereo not given),-7.26%
21,COc1ccc(C(=O)n2nc(C)c(C)c2C)cc1,-2.07%
22,COCC(=O)N1CCC2(CC1)CC(=O)N(Cc1ccc(Cl)cc1)C2,-6.31%
23,CCOCC1CN(CC2CCC2)Cc2nnn(CC3CC3)c21 (stereo not given),-0.482%

row,Structure (SMILES),cytotoxicity at 70.5 h
1,O=C(Cc1ccsc1)N1CCC(Cn2cc(CCO)nn2)CC1,-14.1%
2,CC(C)NC(=O)N1CCC2(C1)CN(c1ccsc1)C(=O)CN2C (stereo not given),-9.03%
3,CC(C)c1nc(C2CCCN2c2cnc3ccccc3n2)no1 (stereo not given),-6.53%
4,O=C(O)C1(n2ccc(-c3ccco3)n2)CCN(Cc2cccnc2)CC1,-4.45%
5,CN(C)c1cccc(C2CCN(c3ncccn3)CC2)n1,-3.49%
6,CN1CCN(C(=O)C2CCCN2c2ncnc3ccsc23)CC1 (stereo not given),-11.8%
7,Cc1nc2c(c(=O)n1C)CN(C(=O)C1CCCN(C3CCCC3)C1)C2 (stereo not given),6.1%
8,CCC(NC(=O)Nc1ccc(OC)c(C)c1)c1noc(C)n1 (stereo not given),4.08%
9,CS(=O)(=O)NCCNC(=O)c1ccc(OCc2ccccc2)nc1,-9.1%
10,C=C(C)COc1cccc(C(=O)N(CC)Cc2nc(COC)no2)c1,-7.82%
11,c1cnc(NCc2noc3c2CN(C2CCOC2)CC3)nc1 (stereo not given),-6.78%
12,CCN1CCN(c2ccc(F)cc2C(C)NCc2ccccn2)CC1 (stereo not given),13.7%
13,CC(C)CN1CCCC2(CCN(C(=O)c3cnccn3)C2)C1 (stereo not given),-14.6%
14,CC(C)CC1(C(=O)NCc2nncn2C2CC2)CCC1,1.12%
15,NC(=O)c1cnn2c1NCC(CNCCOc1ccccc1)C2 (stereo not given),-5.14%
16,CC(C)C(=O)NCc1cccc(N2CCCCC2=O)c1,-12.2%
17,CC1CCN(C(=O)c2cnc3cc(C(=O)N(C)C)n(C)c3c2)CC1,6.93%
18,O=C(NCCCn1cccn1)N1CCCC1c1cccs1 (stereo not given),-7.95%
19,CC[C@@]1(O)CCN(C(=O)c2ccc(-n3cnnc3)cc2)C[C@H]1O,20.9%
20,Cc1nccn1CC1CCN(C(=O)c2ccccc2)CC1,-7.01%
21,CN(C)S(=O)(=O)c1ccc(CN2CCCC2c2cccs2)o1 (stereo not given),15.3%
22,Cc1nc(CN(C)C(=O)Nc2cccc(COC(C)C)c2C)no1,-4.14%
23,Cc1ccsc1C(O)CNC(=O)Cc1ccc(S(=O)(=O)C(C)C)cc1 (stereo not given),-13.3%

row,Structure (SMILES),cytotoxicity at 70.5 h
1,c1cnc(OCc2nnc3n2CCN(Cc2ccco2)C3)nc1,-0.839%
2,CC1(C)Oc2ccc(NC(=O)c3ccc(=O)[nH]n3)cc2O1,-12.5%
3,COc1nc(N2CCNCC2)ncc1Br,-9.1%
4,COc1cc(C)sc1C(=O)N1CC(c2cccnc2)C1,-3.92%
5,COCCN(Cc1ccc(OC)nc1)Cc1cccs1,29.6%
6,Cc1cnc(CNS(=O)(=O)CCC2CCCO2)o1 (stereo not given),-12.3%
7,O=C(CNc1ccc(F)cc1OCC(F)(F)F)NCC(F)(F)F,13.1%
8,CCOc1ccccc1C(CC(=O)N(C)c1ccccc1)NC(C)=O (stereo not given),15.9%
9,CC(NS(=O)(=O)CCc1ccccn1)c1ccccc1Br (stereo not given),33.3%
10,CCNC(=O)N1C[C@@H]2OCC(=O)N(CC3CCCCC3)[C@@H]2C1,-3.95%
11,CCC1CN(C)c2ccccc2CN1C(=O)CCn1cncn1 (stereo not given),-7.82%
12,O=C(Cc1ccc(F)cc1Cl)N[C@@H]1CCNC[C@H]1O,-6%
13,CCN(Cc1nc2c(cnn2C)c(=O)[nH]1)Cc1ccco1,-13.6%
14,Cc1nn(C)c(C)c1CCC(=O)OCC(=O)N1CCc2sccc2C1,20.5%
15,CN(C)c1ncccc1CNC(=O)NCc1ccco1,0.432%
16,CCS(=O)(=O)N1CCC(NC(=O)c2cc(C)ccc2O)CC1,-5.66%
17,Cc1ccc(F)cc1S(=O)(=O)NCc1[nH]ncc1Br,-0.985%
18,Cc1ccc(NC(=O)NCC2(N3CCOCC3)CCSC2)c(C)c1 (stereo not given),8.25%
19,CNc1cncc(C2CCCN2C(=O)c2ccc3c(c2)CCC3)n1 (stereo not given),9.47%
20,CCC1CCCCN1C(=O)Cn1cnc(C#N)n1 (stereo not given),-4.5%
21,COc1ccc(C2CCCCCN2CCCNS(C)(=O)=O)cc1 (stereo not given),-6.03%
22,N#Cc1ncn(CCC(=O)Nc2cc(Cl)ccc2Cl)n1,-4.2%
23,CNC(=O)N1CCC2(CC1)c1ncc(C)n1CCN2C,-0.582%
